{"source": "paper PMC5218480", "about": "(PLoS ONE, 2017)", "tested_on": "MV-4-11 cells", "assay": "Gene expression microarray analysis (Affymetrix PrimeView) and GSEA", "assay_type": "cell-based, human", "parameters": "RFU PODN (11730768_x_at) / Fold change /veh PODN (11730768_x_at) / RFU LINC00158 (11744669_a_at) / Fold change /veh LINC00158 (11744669_a_at) / RFU DUSP10 (11751237_a_at) / Fold change /veh DUSP10 (11751237_a_at) / RFU ID3 (11757404_x_at) / Fold change /veh ID3 (11757404_x_at) / RFU PLEKHG5 (11737974_s_at) / Fold change /veh PLEKHG5 (11737974_s_at) / RFU LRRC4B (11730491_at) / Fold change /veh LRRC4B (11730491_at) / RFU GIMAP4 (11747438_a_at) / Fold change /veh GIMAP4 (11747438_a_at) / RFU KRT8 (11758183_x_at) / Fold change /veh KRT8 (11758183_x_at) / RFU CNN1 (11734310_a_at) / Fold change /veh CNN1 (11734310_a_at) / RFU VPS37D (11726825_at) / Fold change /veh VPS37D (11726825_at) / RFU C10orf10 (11716522_x_at) / Fold change /veh C10orf10 (11716522_x_at) / RFU KIR2DL2 /// KIR2DL4 /// KIR2DL5A /// KIR2DL5B /// KIR2DS1 /// KIR2DS2 /// KIR2DS3 /// KIR2DS4 /// KIR3DL3 /// KIR3DL3 /// KIR3DS1 (11738374_at) / Fold change /veh KIR2DL2 /// KIR2DL4 /// KIR2DL5A /// KIR2DL5B /// KIR2DS1 /// KIR2DS2 /// KIR2DS3 /// KIR2DS4 /// KIR3DL3 /// KIR3DL3 /// KIR3DS1 (11738374_at) / RFU C1QL1 (11718748_at) / Fold change /veh C1QL1 (11718748_at) / RFU TMPRSS4 (11747572_a_at) / Fold change /veh TMPRSS4 (11747572_a_at) / RFU HAMP (11756126_x_at) / Fold change /veh HAMP (11756126_x_at) / RFU RNFT2 (11725882_a_at) / Fold change /veh RNFT2 (11725882_a_at) / RFU NR4A2 (11747474_a_at) / Fold change /veh NR4A2 (11747474_a_at) / RFU ABCC12 (11746883_a_at) / Fold change /veh ABCC12 (11746883_a_at) / RFU TMEM136 (11760407_x_at) / Fold change /veh TMEM136 (11760407_x_at) / RFU CLDN22 /// WWC2 (11732394_at) / Fold change /veh CLDN22 /// WWC2 (11732394_at) / RFU HLA-DPB1 (11760878_x_at) / Fold change /veh HLA-DPB1 (11760878_x_at) / RFU SPINT1 (11716480_a_at) / Fold change /veh SPINT1 (11716480_a_at) / RFU GAP43 (11754022_s_at) / Fold change /veh GAP43 (11754022_s_at) / RFU A4GNT (11735810_at) / Fold change /veh A4GNT (11735810_at) / RFU PRB3 (11715151_x_at) / Fold change /veh PRB3 (11715151_x_at) / RFU TUBB4B (11761932_at) / Fold change /veh TUBB4B (11761932_at) / RFU CAPN14 (11732068_a_at) / Fold change /veh CAPN14 (11732068_a_at) / RFU TMCC2 (11721928_a_at) / Fold change /veh TMCC2 (11721928_a_at) / RFU IRGQ (11745062_a_at) / Fold change /veh IRGQ (11745062_a_at) / RFU FAM174B (11720279_a_at) / Fold change /veh FAM174B (11720279_a_at) / RFU TMPRSS4 (11748680_a_at) / Fold change /veh TMPRSS4 (11748680_a_at) / RFU FAM212B (11763350_a_at) / Fold change /veh FAM212B (11763350_a_at) / RFU PLEKHG5 (11743358_a_at) / Fold change /veh PLEKHG5 (11743358_a_at) / RFU ZSCAN30 (11745921_a_at) / Fold change /veh ZSCAN30 (11745921_a_at) / RFU CMKLR1 (11741424_a_at) / Fold change /veh CMKLR1 (11741424_a_at) / RFU LOC101060620 /// MAPK8IP1 (11723275_at) / Fold change /veh LOC101060620 /// MAPK8IP1 (11723275_at) / RFU SPTSSB (11747773_x_at) / Fold change /veh SPTSSB (11747773_x_at) / RFU PRSS12 (11739890_at) / Fold change /veh PRSS12 (11739890_at) / RFU BIN1 (11741810_x_at) / Fold change /veh BIN1 (11741810_x_at) / RFU WNT11 (11732464_a_at) / Fold change /veh WNT11 (11732464_a_at) / RFU C10orf10 (11716521_a_at) / Fold change /veh C10orf10 (11716521_a_at) / RFU C5orf56 (11738089_at) / Fold change /veh C5orf56 (11738089_at) / RFU CYB561 (11721691_x_at) / Fold change /veh CYB561 (11721691_x_at) / RFU ANKRD19P (11752326_a_at) / Fold change /veh ANKRD19P (11752326_a_at) / RFU OR2T12 /// OR2T33 /// OR2T8 (11738714_s_at) / Fold change /veh OR2T12 /// OR2T33 /// OR2T8 (11738714_s_at) / RFU VCAN (11748164_a_at) / Fold change /veh VCAN (11748164_a_at) / RFU JSRP1 (11732532_at) / Fold change /veh JSRP1 (11732532_at) / RFU KRTAP10-11 (11738290_x_at) / Fold change /veh KRTAP10-11 (11738290_x_at) / RFU MYO3A (11730013_a_at) / Fold change /veh MYO3A (11730013_a_at) / RFU EBF3 (11725865_a_at) / Fold change /veh EBF3 (11725865_a_at) / RFU CAMK2N1 (11719241_x_at) / Fold change /veh CAMK2N1 (11719241_x_at) / RFU C5orf56 (11738088_a_at) / Fold change /veh C5orf56 (11738088_a_at) / RFU OLFML3 (11715873_a_at) / Fold change /veh OLFML3 (11715873_a_at) / RFU LOC100653217 /// NTM (11731650_a_at) / Fold change /veh LOC100653217 /// NTM (11731650_a_at) / RFU MAPK11 (11762145_a_at) / Fold change /veh MAPK11 (11762145_a_at) / RFU FIZ1 (11724087_x_at) / Fold change /veh FIZ1 (11724087_x_at) / RFU OASL (11726364_x_at) / Fold change /veh OASL (11726364_x_at) / RFU SOX15 (11748057_x_at) / Fold change /veh SOX15 (11748057_x_at) / RFU CD79A (11719716_a_at) / Fold change /veh CD79A (11719716_a_at) / RFU HIST1H1D (11736915_at) / Fold change /veh HIST1H1D (11736915_at) / RFU CASKIN2 (11723855_a_at) / Fold change /veh CASKIN2 (11723855_a_at) / RFU LOC730098 (11760151_x_at) / Fold change /veh LOC730098 (11760151_x_at) / RFU OR4N2 (11742367_at) / Fold change /veh OR4N2 (11742367_at) / RFU PRRT2 (11749266_a_at) / Fold change /veh PRRT2 (11749266_a_at) / RFU SNX32 (11753110_a_at) / Fold change /veh SNX32 (11753110_a_at) / RFU CDHR5 (11726645_a_at) / Fold change /veh CDHR5 (11726645_a_at) / RFU RCAN1 (11760418_a_at) / Fold change /veh RCAN1 (11760418_a_at) / RFU FAM167A (11723789_a_at) / Fold change /veh FAM167A (11723789_a_at) / RFU FAM26E (11764081_at) / Fold change /veh FAM26E (11764081_at) / RFU ISYNA1 (11749810_s_at) / Fold change /veh ISYNA1 (11749810_s_at) / RFU ACY1 (11761880_at) / Fold change /veh ACY1 (11761880_at) / RFU 11764098_at / Fold change /veh 11764098_at / RFU SAMD14 (11745864_x_at) / Fold change /veh SAMD14 (11745864_x_at) / RFU NPB (11741838_a_at) / Fold change /veh NPB (11741838_a_at) / RFU TMPRSS6 (11731388_a_at) / Fold change /veh TMPRSS6 (11731388_a_at) / RFU KRTAP10-2 (11738614_at) / Fold change /veh KRTAP10-2 (11738614_at) / RFU ARHGAP8 /// PRR5-ARHGAP8 (11727945_x_at) / Fold change /veh ARHGAP8 /// PRR5-ARHGAP8 (11727945_x_at) / RFU KRTAP5-7 /// NADSYN1 (11734609_at) / Fold change /veh KRTAP5-7 /// NADSYN1 (11734609_at) / RFU RASL12 (11751679_a_at) / Fold change /veh RASL12 (11751679_a_at) / RFU CDKN2B (11736163_a_at) / Fold change /veh CDKN2B (11736163_a_at) / RFU PRF1 (11729649_at) / Fold change /veh PRF1 (11729649_at) / RFU, ZNF638 /// ZNF638-IT1 / Fold change vs veh, ZNF638 /// ZNF638-IT1 / RFU, PANK3 / Fold change vs veh, PANK3 / RFU, SH3YL1 / Fold change vs veh, SH3YL1 / RFU, ZEB2 / Fold change vs veh, ZEB2 / RFU, NRIP1 / Fold change vs veh, NRIP1 / RFU, PTTG1IP / Fold change vs veh, PTTG1IP / RFU, CAPN2 / Fold change vs veh, CAPN2 / RFU, MED14 / Fold change vs veh, MED14 / RFU, SNORA58 / Fold change vs veh, SNORA58 / RFU, C1orf63 / Fold change vs veh, C1orf63 / RFU, LRRFIP1 / Fold change vs veh, LRRFIP1 / RFU, NDUFAF7 / Fold change vs veh, NDUFAF7 / RFU, SLC12A2 / Fold change vs veh, SLC12A2 / RFU, IBTK / Fold change vs veh, IBTK / RFU, ESF1 / Fold change vs veh, ESF1 / Fold change vs veh, TMEM50B / RFU, TAOK1 / Fold change vs veh, TAOK1 / RFU, ACBD3 / Fold change vs veh, ACBD3 / RFU, TMA16 / Fold change vs veh, TMA16 / RFU, RWDD3 / Fold change vs veh, RWDD3 / RFU, BCAT1 / Fold change vs veh, BCAT1 / RFU, EDEM3 / Fold change vs veh, EDEM3 / RFU, TMEM33 / Fold change vs veh, TMEM33 / RFU, WDR75 / Fold change vs veh, WDR75 / RFU, AHCTF1 / Fold change vs veh, AHCTF1 / RFU, TFRC / Fold change vs veh, TFRC / RFU, ZDHHC17 / Fold change vs veh, ZDHHC17 / RFU, NOM1 / Fold change vs veh, NOM1 / RFU, ARL8B / Fold change vs veh, ARL8B / RFU, ZBTB11 / Fold change vs veh, ZBTB11 / RFU, TAMM41 / Fold change vs veh, TAMM41 / RFU, KIAA1704 /// LOC100996395 / Fold change vs veh, KIAA1704 /// LOC100996395 / RFU, ING1 / Fold change vs veh, ING1 / RFU, TRMT61B / Fold change vs veh, TRMT61B / RFU, FUBP3 / Fold change vs veh, FUBP3 / RFU, TP53 / Fold change vs veh, TP53 / RFU, TNKS2 / Fold change vs veh, TNKS2 / RFU, ZFP14 / Fold change vs veh, ZFP14 / RFU, ACTR2 / Fold change vs veh, ACTR2 / RFU, PPP3R1 / Fold change vs veh, PPP3R1 / RFU, PIK3R1 / Fold change vs veh, PIK3R1 / RFU, HNRNPA1 / Fold change vs veh, HNRNPA1 / RFU, RNF170 / Fold change vs veh, RNF170 / RFU, ZNF28 / Fold change vs veh, ZNF28 / RFU, RNGTT / Fold change vs veh, RNGTT / RFU, OGT / Fold change vs veh, OGT / RFU, BRD1 / Fold change vs veh, BRD1 / RFU, MARS / Fold change vs veh, MARS / RFU, ZNF655 / Fold change vs veh, ZNF655 / RFU, FAHD1 / Fold change vs veh, FAHD1 / RFU, BDP1 / Fold change vs veh, BDP1 / RFU, LRRCC1 / Fold change vs veh, LRRCC1 / RFU, ARID1A / Fold change vs veh, ARID1A / RFU, ZNF146 / Fold change vs veh, ZNF146 / RFU, ZNF330 / Fold change vs veh, ZNF330 / RFU, GPN3 / Fold change vs veh, GPN3 / RFU, C9orf123 / Fold change vs veh, C9orf123 / RFU, N4BP2L2 / Fold change vs veh, N4BP2L2 / RFU, ARFIP1 / Fold change vs veh, ARFIP1 / RFU, FAM179B / Fold change vs veh, FAM179B / RFU, BCL10 / Fold change vs veh, BCL10 / RFU, UHRF1BP1L / Fold change vs veh, UHRF1BP1L / RFU, BET1 / Fold change vs veh, BET1 / RFU, CNOT2 / Fold change vs veh, CNOT2 / RFU, ZNF268 / Fold change vs veh, ZNF268 / Fold change vs veh, ZNF507 / RFU, DGCR2 / Fold change vs veh, DGCR2 / RFU, WDSUB1 / Fold change vs veh, WDSUB1 / Fold change vs veh, HSP90B1 /// MIR3652 / RFU, ADSS / Fold change vs veh, ADSS / RFU, GK / Fold change vs veh, GK / RFU, ZNF148 / Fold change vs veh, ZNF148 / RFU, TAF9 / Fold change vs veh, TAF9 / RFU, SLC1A5 / Fold change vs veh, SLC1A5 / RFU, SLMO2 / Fold change vs veh, SLMO2 / RFU, ABCC4 / Fold change vs veh, ABCC4 / RFU, LOC101060439 /// RAP1B / Fold change vs veh, LOC101060439 /// RAP1B / RFU, RFX7 / Fold change vs veh, RFX7 / RFU, GTPBP10 / Fold change vs veh, GTPBP10 / RFU, CNEP1R1 / Fold change vs veh, CNEP1R1 / RFU, BIVM-ERCC5 /// ERCC5 / Fold change vs veh, BIVM-ERCC5 /// ERCC5 / RFU, ILF3 / Fold change vs veh, ILF3 / RFU 11762660_at / Fold change /veh 11762660_at / RFU VCAN (11757783_s_at) / Fold change /veh VCAN (11757783_s_at) / RFU DDX43 (11728927_at) / Fold change /veh DDX43 (11728927_at) / RFU KRT8 (11758188_x_at) / Fold change /veh KRT8 (11758188_x_at) / RFU NKD1 (11759106_at) / Fold change /veh NKD1 (11759106_at) / RFU SRD5A1 (11742802_a_at) / Fold change /veh SRD5A1 (11742802_a_at) / RFU TPSAB1 /// TPSB2 (11721975_s_at) / Fold change /veh TPSAB1 /// TPSB2 (11721975_s_at) / RFU GSTM3 (11746129_a_at) / Fold change /veh GSTM3 (11746129_a_at) / RFU IL23R (11737362_x_at) / Fold change /veh IL23R (11737362_x_at) / RFU TMEM51 (11727254_a_at) / Fold change /veh TMEM51 (11727254_a_at) / RFU PIWIL2 (11732686_x_at) / Fold change /veh PIWIL2 (11732686_x_at) / RFU ORM1 (11744905_x_at) / Fold change /veh ORM1 (11744905_x_at) / RFU CCDC152 (11743942_at) / Fold change /veh CCDC152 (11743942_at) / RFU ECM1 (11717891_a_at) / Fold change /veh ECM1 (11717891_a_at) / RFU IL23R (11748794_a_at) / Fold change /veh IL23R (11748794_a_at) / RFU TNFAIP8L3 (11732012_x_at) / Fold change /veh TNFAIP8L3 (11732012_x_at) / RFU MBOAT4 (11741988_at) / Fold change /veh MBOAT4 (11741988_at) / RFU 11764193_at / Fold change /veh 11764193_at / RFU TMEM53 (11763286_at) / Fold change /veh TMEM53 (11763286_at) / RFU MAGEB2 (11727129_at) / Fold change /veh MAGEB2 (11727129_at) / RFU TMEM200A (11744735_a_at) / Fold change /veh TMEM200A (11744735_a_at) / RFU CCDC152 (11751479_a_at) / Fold change /veh CCDC152 (11751479_a_at) / RFU FAM211A (11726209_a_at) / Fold change /veh FAM211A (11726209_a_at) / RFU RGS16 (11746705_a_at) / Fold change /veh RGS16 (11746705_a_at) / RFU VCAN (11755009_s_at) / Fold change /veh VCAN (11755009_s_at) / RFU RHOB (11743442_s_at) / Fold change /veh RHOB (11743442_s_at) / RFU RGS16 (11720943_a_at) / Fold change /veh RGS16 (11720943_a_at) / RFU RGS16 (11720944_at) / Fold change /veh RGS16 (11720944_at) / RFU, VPS4B / Fold change vs veh, VPS4B / RFU, CREB1 / Fold change vs veh, CREB1 / RFU, DNAJC13 / Fold change vs veh, DNAJC13 / RFU, GNAQ / Fold change vs veh, GNAQ / RFU, CDK5R1 / Fold change vs veh, CDK5R1 / RFU, ZRANB3 / Fold change vs veh, ZRANB3 / RFU, CUL4A / Fold change vs veh, CUL4A / RFU, CCNY / Fold change vs veh, CCNY / RFU, UFL1 / Fold change vs veh, UFL1 / RFU, COG3 / Fold change vs veh, COG3 / RFU, DIAPH2 / Fold change vs veh, DIAPH2 / RFU, SKA2 / Fold change vs veh, SKA2 / RFU, AFF3 / Fold change vs veh, AFF3 / RFU, LMF1 / Fold change vs veh, LMF1 / RFU, IPO11 / Fold change vs veh, IPO11 / RFU, DFFB / Fold change vs veh, DFFB / RFU, FOXP1 / Fold change vs veh, FOXP1 / RFU, CARD8 / Fold change vs veh, CARD8 / RFU, STRN3 / Fold change vs veh, STRN3 / RFU, ADK / Fold change vs veh, ADK / RFU, RASSF2 / Fold change vs veh, RASSF2 / RFU, WIPF1 / Fold change vs veh, WIPF1 / RFU, LARP1B / Fold change vs veh, LARP1B / RFU, RASA1 / Fold change vs veh, RASA1 / RFU, RB1 / Fold change vs veh, RB1 / RFU, PPFIA1 / Fold change vs veh, PPFIA1 / RFU, MAT2A / Fold change vs veh, MAT2A / RFU, CCT5 / Fold change vs veh, CCT5 / RFU, WDR92 / Fold change vs veh, WDR92 / RFU, CUX1 / Fold change vs veh, CUX1 / RFU, TTC7A / Fold change vs veh, TTC7A / RFU, TMEM135 / Fold change vs veh, TMEM135 / RFU, DEPTOR / Fold change vs veh, DEPTOR / RFU, CPM / Fold change vs veh, CPM / RFU, DNAJB6 / Fold change vs veh, DNAJB6 / RFU, CACNA2D3 / Fold change vs veh, CACNA2D3 / RFU, DTX4 / Fold change vs veh, DTX4 / RFU, TFCP2 / Fold change vs veh, TFCP2 / RFU, GMCL1 /// GMCL1P1 / Fold change vs veh, GMCL1 /// GMCL1P1 / RFU, AEBP2 / Fold change vs veh, AEBP2 / RFU, SNHG1 /// SNORD22 /// SNORD25 /// SNORD26 /// SNORD27 /// SNORD28 /// SNORD29 /// SNORD31 / Fold change vs veh, SNHG1 /// SNORD22 /// SNORD25 /// SNORD26 /// SNORD27 /// SNORD28 /// SNORD29 /// SNORD31 / Fold change (Aza/veh), C12orf56 (ProbeSet 11735607_a_at) / Fold change (ACY-1035/veh), C12orf56 (ProbeSet 11735607_a_at) / Fold change (Aza/veh), FGFR1OP (ProbeSet 11751329_s_at) / Fold change (ACY-1035/veh), FGFR1OP (ProbeSet 11751329_s_at) / Fold change (Aza/veh), VPS36 (ProbeSet 11739960_a_at) / Fold change (ACY-1035/veh), VPS36 (ProbeSet 11739960_a_at) / RFU SYPL1 (11715823_x_at) / Fold change /veh SYPL1 (11715823_x_at) / RFU IGFBP7 (11715501_s_at) / Fold change /veh IGFBP7 (11715501_s_at) / RFU REEP3 (11722064_at) / Fold change /veh REEP3 (11722064_at) / RFU IGLL1 (11728026_x_at) / Fold change /veh IGLL1 (11728026_x_at): dose or concentration left out as unconfirmed", "settings": "ProbeSet 11747889_x_at; LIST B", "data": [{"compound": "Nc1ccc(-c2cccs2)cc1NC(=O)c1ccc2c(c1)cc(C1CC1)n2CCN1CCOCC1", "note": "[ACY-1035]", "values": [{"measurement": "Fold change vs veh, SH3YL1", "result": 0.99}]}]}
